For test [1], the target named is T1, recombinant human Wee1A kinase (Homo sapiens, UniProt P30291).
T1 construct: full length Wee1A kinase was expressed by baculovirus in insect cells; purchased Invitrogen PV3817; host or cells: insect cells (baculovirus)
Put plainly: LanthaScreen Europium (Eu) Kinase Binding Assay, Wee1A kinase (TR-FRET tracer displacement). The following applies: 30 nM tracer 178, 5 nM Wee1A kinase, 60 minutes at room temperature. The source says: We used a LanthaScreen Europium (Eu) Kinase Binding Assay to determine the binding of provided compounds to Wee1A kinase. The assay utilizes an Alexa Fluor 647-labeled ATP competitive kinase tracer that binds to the ATP binding site of a GST-tagged Wee1A kinase, while a europium (Eu) labeled antibody binds to the GST tag. The proximity of fluorescently labeled kinase tracer and europium (Eu) donor fluorophore antibody leads to fluorescence resonance energy transfer (FRET) to the fluorescence label (acceptor) upon excitation of the Eu (donor). Displacement of tracer from the ATP-binding site by a test compound disturbs the proximity between both labels thus lowering the FRET.
This time resolved-FRET binding assay was performed in white 384-well low volume plates (Greiner, cat #784075), at room temperature in kinase buffer A (KBA; Invitrogen cat #PV3189), consisting of 50 mM HEPES-NaOH (pH 7.5), 0.01% Brij-35, 10 mM MgCl2, and 1 mM EGTA. 5 μl of compound (diluted in reaction buffer, to 1% DMSO) were added to various wells in the plate, followed by 5 μl each of recombinant human Wee1A kinase (full length Wee1A kinase was expressed by baculovirus in insect cells using a N-terminal GST tag (MW: 99.1 kDa) (Invitrogen cat #PV3817) and LanthaScreen Eu-anti-GST antibody (Invitrogen, cat #PV5594). After this, 5 μl of kinase tracer 178 (Invitrogen, cat #PV5593) was added to the plate and the plate was incubated for 60 minutes at room temperature. The final assay conditions in each well were: 30 nM tracer 178, 5 nM Wee1A kinase and 2 nM Eu-labeled antibody in total assay volume of 15 μl. An Envision 2104 (Perkin-Elmer) Plate Reader with the following time-resolve fluorescence setting was used for performing LanthaScreen kinase binding assay. • Excitation 320 nm (30 nm bandpass) • Kinase Tracer Emission 665 nm (10 nm bandpass) • LanthaScreen Eu-anti-Tag Antibody Emission 615 nm (10 nm bandpass) • Dichroic Mirror Instrument dependent • Delay Time 100 μs • Integration Time 200 μs
To calculate the emission ratio, the acceptor/tracer emission ([…]) was divided by the antibody/donor emission ([…]) and the average of duplicate measurement was used for calculations. Data plotting, analysis of binding, and curve fitting was done using Excel add-in XLfit version 5.5.0.5 (IDBS, Guildford, United Kingdom).
Background: TR-FRET usually uses a lanthanide donor and a delayed reading to cut background.

The test system of test [2] is Cdk1 phosphorylated on tyrosine 15. Put plainly: High-content imaging of pCdk1 Y15 by immunofluorescence in ACHN cells. Format: cell-based. The following applies: Homo sapiens, high-content imaging (IF), 4 h, 7 to 5000 nM, read-out: CDK1 Tyr15 Phosphorylation EC50 (IC50). As to the method: ACHN renal cell carcinoma cell line (ATCC) was cultured in Minimum Essential Medium Eagle supplemented with 10% fetal calf serum (Sigma), 1% Penicillin-Streptomycin and 10 mM HEPES buffer (HyClone). Cell cultures were kept in a humidified incubator at 37° C. and 5% CO2. Cells were routinely tested for Mycoplasma contamination.
High-content imaging of ACHN renal cell carcinoma cells was used for quantification of CDK1 phosphorylated on tyrosine 15 by immunofluorescence (“IF”). 20 000 cells per well were seeded in tissue culture treated 96 well plates and treated with compounds at concentrations ranging from 7 to 5000 nM for 4 h. Cells were fixated for 15 minutes in 4% paraformaldehyde solution, washed in PBS and permeabilized using 0.2% Triton X-100. Blocking was performed for 1 h at RT using Blocker FL Fluorescent Blocking Buffer (Thermo Scientific), thereafter cells were incubated with primary antibody (rabbit anti-pCDK1 Y^15, #4539, Cell Signaling Technology) at 4° C. ON. Alexa Fluor Plus 647 labelled goat anti-rabbit (A32733. Thermo Scientific) was used as secondary antibody. After washing in PBS, nuclei were stained with DAPI solution for 10 min at RT, protected from light. Cells were imaged using an ImageXpress Pico automated imaging system and CellReporter Xpress software (Molecular Devices). The percentage cells with nuclear positivity for pCdk1 Y^15 compared to DMSO control was determined for each well and drug dose response curves and EC50 values were calculated and visualized using GraphPad Prism.

By IC50 is commonly meant the midpoint of a concentration-inhibition curve. For orientation: EC50 means the concentration needed to bring the measured effect to its halfway point.

T1 sequence (P30291 whole entry): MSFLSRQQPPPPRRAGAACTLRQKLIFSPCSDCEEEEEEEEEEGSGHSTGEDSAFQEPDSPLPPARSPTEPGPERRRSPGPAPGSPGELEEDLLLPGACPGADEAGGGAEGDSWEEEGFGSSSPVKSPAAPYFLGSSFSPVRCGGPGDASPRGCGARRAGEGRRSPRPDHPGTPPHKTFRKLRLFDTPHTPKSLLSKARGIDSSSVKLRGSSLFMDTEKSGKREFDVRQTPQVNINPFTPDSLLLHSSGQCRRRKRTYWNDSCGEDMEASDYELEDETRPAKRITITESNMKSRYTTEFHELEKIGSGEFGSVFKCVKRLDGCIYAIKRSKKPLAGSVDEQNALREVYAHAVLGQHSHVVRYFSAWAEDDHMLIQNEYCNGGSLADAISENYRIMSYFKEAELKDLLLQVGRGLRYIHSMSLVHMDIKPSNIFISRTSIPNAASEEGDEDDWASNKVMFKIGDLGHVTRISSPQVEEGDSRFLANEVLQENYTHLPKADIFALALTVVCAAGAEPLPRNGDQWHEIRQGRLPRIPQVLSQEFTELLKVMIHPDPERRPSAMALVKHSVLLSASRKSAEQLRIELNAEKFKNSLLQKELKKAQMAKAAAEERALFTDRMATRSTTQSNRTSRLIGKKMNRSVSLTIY

As to `COc1nc(Nc2cnn(C[C@H]3CCNC3)c2)ncc1C(=O)Nc1c(Cl)cccc1Cl` [Compound 165], in test [1], the half-inhibitory concentration (IC50) fell in the range of 10 to 100 nM. Also, in test [2], the EC50 was > 1000 nM. For `COc1nc(Nc2ccc([C@@H]3CCN(C)C3)c(C)c2)ncc1C(=O)Nc1c(Cl)cccc1Br` [Compound 193], in that order: ≤ 10 nM and ≤ 100 nM. Regarding `COc1nc(Nc2ccc(N3CCN(C)CC3)c(C)c2)ncc1C(=O)Nc1c(Cl)cccc1Cl` [Compound 161], in test [1], the half-maximal inhibitory concentration (IC50) is ≤ 10 nM. Also, the EC50 in test [2] fell in the range of 100 to 500 nM. Take `COc1nc(Nc2cnn(C[C@H]3CCCN3)c2)ncc1C(=O)Nc1c(Cl)cccc1Cl` [Compound 159]: the IC50 in test [1] was in the range of 10 to 100 nM.

Regarding `COc1nc(Nc2ccc(C3CCN(C)CC3)c(C)c2)ncc1C(=O)Nc1cc(O)ccc1Cl` [Compound 138, N-(2-chloro-5-hydroxyphenyl)-4-methoxy-2-((3-methyl-4-(1-methylpiperidin-4-yl)phenyl)amino)pyrimidine-5-carboxamide], the 50% inhibitory concentration (IC50) in test [1] was ≤ 10 nM. For the same compound, the concentration giving a half-maximal response (EC50) in test [2] is > 1000 nM. Consider `COc1nc(Nc2ccc(OCCN3CCOCC3)c(C)c2)ncc1C(=O)Nc1c(Cl)ccc(O)c1C` [Compound 151, N-(6-chloro-3-hydroxy-2-methylphenyl)-4-methoxy-2-((3-methyl-4-(2-morpholinoethoxy)phenyl)amino)pyrimidine-5-carboxamide], for which the EC50 in test [2] was > 1000 nM. In the case of `COc1nc(Nc2ccc([C@H]3CCCNC3)c(C)c2)ncc1C(=O)Nc1c(Cl)cccc1Br` [Compound 198, (R)—N-(2-bromo-6-chlorophenyl)-4-methoxy-2-((3-methyl-4-(piperidin-3-yl)phenyl)amino)pyrimidine-5-carboxamide], the half-inhibitory concentration (IC50) in test [1] is ≤ 10 nM. The EC50 in test [2] lay within 100 to 500 nM.

Turning to `COc1cccc(Cl)c1NC(=O)c1cnc(Nc2ccc(C3CCN(C)CC3)c(C)c2)nc1OC` [Compound 130, N-(2-chloro-6-methoxyphenyl)-4-methoxy-2-((3-methyl-4-(1-methylpiperidin-4-yl)phenyl)amino)pyrimidine-5-carboxamide], in test [1], the IC50 is ≤ 10 nM. Moreover, the EC50 in test [2] was > 1000 nM. Turning to `COc1nc(Nc2cnn(C[C@@H]3CCNC3)c2)ncc1C(=O)Nc1c(Cl)cccc1Cl` [Compound 164], in test [1], the IC50 is ≤ 10 nM. Also, in test [2], the EC50 is > 1000 nM. With `COc1nc(Nc2ccc(C3CCN(C)CC3)c(C)c2)ncc1C(=O)Nc1cnccc1Cl` [Compound 139, N-(4-chloropyridin-3-yl)-4-methoxy-2-((3-methyl-4-(1-methylpiperidin-4-yl)phenyl)amino)pyrimidine-5-carboxamide], the half-inhibitory concentration (IC50) in test [1] was 10 to 100 nM. `CCOc1nc(Nc2cnn([C@H](C)CN(C)C)c2)ncc1C(=O)Nc1c(Cl)cccc1Br` [Compound 204]: the half-inhibitory concentration (IC50) in test [1] is ≤ 10 nM. The EC50 in test [2] was > 1000 nM. The corresponding values for `CCc1cccc(Cl)c1NC(=O)c1cnc(Nc2ccc(C3CCN(C)CC3)c(C)c2)nc1OC` [Compound 132, N-(2-chloro-6-ethylphenyl)-4-methoxy-2-((3-methyl-4-(1-methylpiperidin-4-yl)phenyl)amino)pyrimidine-5-carboxamide] are ≤ 10 nM and 100 to 500 nM. On to `COc1nc(Nc2ccc(C3CCN(C)CC3)nc2)ncc1C(=O)Nc1c(Cl)cccc1Cl` [Compound 183, N-2,6-dichlorophenyl-4-methoxy-2-[6-(1-methyl-4-piperidyl)-3-pyridylamino]-5-pyrimidinecarboxamide], for which the half-inhibitory concentration (IC50) in test [1] was in the range of 10 to 100 nM.

In the case of `COc1nc(Nc2ccc(C3CCN(C)CC3)c(C)c2)ncc1C(=O)Nc1ccccc1C#N` [Compound 115, N-(2-cyanophenyl)-4-methoxy-2-((3-methyl-4-(1-methylpiperidin-4-yl)phenyl)amino)pyrimidine-5-carboxamide], the IC50 in test [1] lay within 10 to 100 nM. For the compound `COc1nc(Nc2cnn(C[C@@H]3CCCN3)c2)ncc1C(=O)Nc1c(Cl)cccc1Cl` [Compound 160], the IC50 in test [1] was in the range of 10 to 100 nM. On the same count and under the same terms, the result for `COc1nc(Nc2ccc(C3CCN(C)CC3)c(C)c2)ncc1C(=O)Nc1cccc(O)c1` [Compound 118] reads 10 to 100 nM. With `COc1nc(Nc2ccc(C3CCN(C)CC3)c(C)c2)ncc1C(=O)Nc1cc(C#N)ccc1Cl` [Compound 131, N-(2-chloro-5-cyanophenyl)-4-methoxy-2-((3-methyl-4-(1-methylpiperidin-4-yl)phenyl)amino)pyrimidine-5-carboxamide], the “Wee1A kinase Binding IC50” value in test [1] was “C (IC50 greater than 100 nM but less than or equal to 5.00 nM)”. On the same count and under the same terms, the result for `CN(C)CCCOc1nc(Nc2ccc(N3CCN(C)CC3)cc2)ncc1C(=O)Nc1c(Cl)cccc1Cl` [Compound 124, N-(2,6-dichlorophenyl)-4-(3-(dimethylamino)propoxy)-2-((4-(4-methylpiperazin-1-yl)phenyl)amino)pyrimidine-5-carboxamide] reads “C (IC50 greater than 100 nM but less than or equal to 5.00 nM)”. With `COc1nc(Nc2ccc(-c3ccn(C)c3)c(C)c2)ncc1C(=O)Nc1c(Cl)cccc1Br` [Compound 191, N-(2-bromo-6-chlorophenyl)-4-methoxy-2-((3-methyl-4-(1-methyl-1H-pyrrol-3-yl)phenyl)amino)pyrimidine-5-carboxamide], the half-inhibitory concentration (IC50) in test [1] lay within 10 to 100 nM. With `CN1CCN(c2ccc(Nc3ncc(C(=O)Nc4c(Cl)cccc4Cl)c(OCC(F)(F)F)n3)cc2)CC1` [Compound 103, N-(2,6-dichlorophenyl)-2-{[4-(4-methylpiperazin-1-yl)phenyl]amino}-4-(2,2,2-trifluoroethoxy)pyrimidine-5-carboxamide], the half-maximal inhibitory concentration (IC50) in test [1] fell in the range of 10 to 100 nM. Regarding `COc1nc(Nc2ccc(C3CCN(C)CC3)c(C)c2)ncc1C(=O)Nc1ccccc1Cl` [Compound 109, N-(2-chlorophenyl)-4-methoxy-2-((3-methyl-4-(1-methylpiperidin-4-yl)phenyl)amino)pyrimidine-5-carboxamide], the concentration for half-maximal inhibition (IC50) in test [1] lay within 10 to 100 nM. On the same count and under the same terms, then `C#Cc1ccccc1NC(=O)c1cnc(Nc2ccc(C3CCN(C)CC3)c(C)c2)nc1OC` [Compound 126, N-(2-ethynylphenyl)-4-methoxy-2-((3-methyl-4-(1-methylpiperidin-4-yl)phenyl)amino)pyrimidine-5-carboxamide], with 10 to 100 nM. For the compound `COc1nc(Nc2ccc(C3CCN(C)CC3)c(C)c2)ncc1C(=O)Nc1cc([N+](=O)[O-])ccc1C` [Compound 170], in test [1], the “Wee1A kinase Binding IC50” value is recorded as “C (IC50 greater than 100 nM but less than or equal to 5.00 nM)”. Turning to `COc1nc(Nc2ccc(C(=O)N3CCN(C)CC3)c(C)c2)ncc1C(=O)Nc1c(Cl)cccc1Cl` [Compound 168], the IC50 in test [1] was 10 to 100 nM. On the same count and under the same terms, the result for `COc1nc(Nc2ccc(C3CCN(C)CC3)c(C)c2)ncc1C(=O)Nc1c(C)ccnc1Cl` [Compound 117, N-(2-chloro-4-methylpyridin-3-yl)-4-methoxy-2-{[3-methyl-4-(1-methylpiperidin-4-yl)phenyl]amino}pyrimidine-5-carboxamide] reads 10 to 100 nM; that for `COc1nc(Nc2ccc(C3CCN(C)CC3)c(C)c2)ncc1C(=O)Nc1c(C)ccnc1C` [Compound 112, N-(2,4-dimethylpyridin-3-yl)-4-methoxy-2-{[3-methyl-4-(1-methylpiperidin-4-yl)phenyl]amino}pyrimidine-5-carboxamide], 10 to 100 nM. Still for that read-out and setting: then `COc1nc(Nc2ccc([C@H]3CCCN(C)CC3)c(C)c2)ncc1C(=O)Nc1c(Cl)cccc1Br` [Compound 208], with ≤ 10 nM. Turning to `COc1nc(Nc2ccc(C3CCN(C)CC3)c(C)c2)ncc1C(=O)Nc1cc(NC(C)=O)ccc1C` [Compound 169], the “Wee1A kinase Binding IC50” value in test [1] was “C (IC50 greater than 100 nM but less than or equal to 5.00 nM)”.
